Test results from publication PMC4503722, “Novel Phenotypic Outcomes Identified for a Public Collection of Approved Drugs from a Publicly Accessible Panel of Assays” (PLoS ONE, 2015).

Key:
[1] = system: endothelial tube formation in co-cultures of ECFCs and ADSCs treated with VEGF; assay: cells; type: cell-based, human; conditions: for IC50: read-out: VEGF_ADSC\ECFC Angio CD31 TubeArea summarized IC50
[2] = system: HeLa cells; assay: cells; type: cell-based; conditions: for Hela CellCycMod PI 2N IC50/EC50: assay number 14; for Hela CellCycMod PI S Phase IC50/EC50: assay number 15; for Hela CellCycMod PI 4N IC50/EC50: assay number 16; for Hela CellCycMod PI MI IC50/EC50: assay number 17; for Hela CellCycMod PI Cell Number IC50/EC50: assay number 18
[3] = system: ECFC/ADSC co-culture cell nuclei number; conditions: for IC50: read-out: VEGF_ADSC\ECFC Angio Hoechst NucArea summarized IC50

CCCCCCC[N+](CC)(CC)CCCCc1ccc(Cl)cc1.Cc1ccc(S(=O)(=O)[O-])cc1 [NCGC00168464-04]
IC50/EC50, VEGF_ADSC\ECFC Angio CD31 TubeArea (assay number 2) [1]: 6.3375 µM
IC50/EC50, Hela CellCycMod PI 2N (assay number 14) [2]: > 10 µM
IC50/EC50, Hela CellCycMod PI 4N (assay number 16) [2]: > 10 µM
IC50/EC50, Hela CellCycMod PI Cell Number (assay number 18) [2]: > 10 µM
IC50/EC50, Hela CellCycMod PI MI (assay number 17) [2]: > 10 µM
IC50/EC50, VEGF_ADSC\ECFC Angio Hoechst NucArea (assay number 3) [3]: > 10 µM

O=C(O)CCCc1ccc(N(CCCl)CCCl)cc1 [NCGC00015199-20]
IC50/EC50, VEGF_ADSC\ECFC Angio CD31 TubeArea (assay number 2) [1]: 1.2446 µM
IC50/EC50, Hela CellCycMod PI 2N (assay number 14) [2]: > 10 µM
IC50/EC50, Hela CellCycMod PI 4N (assay number 16) [2]: > 10 µM
IC50/EC50, Hela CellCycMod PI Cell Number (assay number 18) [2]: > 10 µM
IC50/EC50, Hela CellCycMod PI MI (assay number 17) [2]: > 10 µM
IC50/EC50, Hela CellCycMod PI S Phase (assay number 15) ([2]; S Phase): 2.1921 µM
IC50/EC50, VEGF_ADSC\ECFC Angio Hoechst NucArea (assay number 3) [3]: > 10 µM

O=c1[nH]c(=O)n([C@H]2C[C@H](O)[C@@H](CO)O2)cc1Br [NCGC00090770-09]
VEGF_ADSC\ECFC Angio CD31 TubeArea IC50/EC50 [1]: 3.8464 µM
Hela CellCycMod PI 2N IC50/EC50 [2]: > 10 µM
Hela CellCycMod PI S Phase IC50/EC50 [2]: > 10 µM
Hela CellCycMod PI 4N IC50/EC50 [2]: > 10 µM
Hela CellCycMod PI MI IC50/EC50 [2]: > 10 µM
Hela CellCycMod PI Cell Number IC50/EC50 [2]: > 10 µM
VEGF_ADSC\ECFC Angio Hoechst NucArea IC50/EC50 [3]: > 10 µM

NCCNc1ccc(NCCN)c2c1C(=O)c1ccncc1C2=O [NCGC00274280-01]
VEGF_ADSC\ECFC Angio CD31 TubeArea IC50/EC50 [1]: 0.0465 µM
Hela CellCycMod PI 2N IC50/EC50 [2]: 0.042 µM
Hela CellCycMod PI 4N IC50/EC50 [2]: 0.04829 µM
Hela CellCycMod PI MI IC50/EC50 [2]: > 10 µM
Hela CellCycMod PI Cell Number IC50/EC50 [2]: 0.04206 µM
VEGF_ADSC\ECFC Angio Hoechst NucArea IC50/EC50 [3]: > 10 µM

CC(C)=CCC/C(C)=C/CC/C(C)=C/C(=O)OCC(=O)[C@@]1(O)CC[C@H]2[C@@H]3CCC4=CC(=O)C=C[C@]4(C)[C@H]3[C@@H](O)C[C@@]21C [NCGC00261967-01]
VEGF_ADSC\ECFC Angio CD31 TubeArea IC50/EC50 [1]: 3.3384 µM
Hela CellCycMod PI 2N IC50/EC50 [2]: > 10 µM
Hela CellCycMod PI S Phase IC50/EC50 [2]: > 10 µM
Hela CellCycMod PI 4N IC50/EC50 [2]: > 10 µM
Hela CellCycMod PI MI IC50/EC50 [2]: > 10 µM
Hela CellCycMod PI Cell Number IC50/EC50 [2]: 0.05952 µM
VEGF_ADSC\ECFC Angio Hoechst NucArea IC50/EC50 [3]: > 10 µM

Cc1ccc(Nc2nccc(N(C)c3ccc4c(C)n(C)nc4c3)n2)cc1S(N)(=O)=O [NCGC00188865-03]
VEGF_ADSC\ECFC Angio CD31 TubeArea IC50/EC50 [1]: 0.0465 µM
Hela CellCycMod PI 2N IC50/EC50 [2]: > 10 µM
Hela CellCycMod PI S Phase IC50/EC50 [2]: > 10 µM
Hela CellCycMod PI 4N IC50/EC50 [2]: > 10 µM
Hela CellCycMod PI MI IC50/EC50 [2]: > 10 µM
Hela CellCycMod PI Cell Number IC50/EC50 [2]: > 10 µM
VEGF_ADSC\ECFC Angio Hoechst NucArea IC50/EC50 [3]: > 10 µM

C1CN(P2(N3CC3)=NP(N3CC3)(N3CC3)=NP(N3CC3)(N3CC3)=N2)CCO1 (stereo not drawn) [NCGC00160420-02]
VEGF_ADSC\ECFC Angio CD31 TubeArea IC50/EC50 [1]: 3.6152 µM
Hela CellCycMod PI 2N IC50/EC50 [2]: > 10 µM
Hela CellCycMod PI S Phase IC50/EC50 [2]: > 10 µM
Hela CellCycMod PI 4N IC50/EC50 [2]: > 10 µM
Hela CellCycMod PI MI IC50/EC50 [2]: > 10 µM
Hela CellCycMod PI Cell Number IC50/EC50 [2]: > 10 µM
VEGF_ADSC\ECFC Angio Hoechst NucArea IC50/EC50 [3]: > 10 µM

O=NN(CCCl)C(=O)NC1CCCCC1 [NCGC00167466-02]
VEGF_ADSC\ECFC Angio CD31 TubeArea IC50/EC50 [1]: > 10 µM
VEGF_ADSC\ECFC Angio Hoechst NucArea IC50/EC50 [3]: > 10 µM

Nc1ccc(O)cc1 [NCGC00090816-05]
IC50/EC50, VEGF_ADSC\ECFC Angio CD31 TubeArea (assay number 2) [1]: > 10 µM
IC50/EC50, VEGF_ADSC\ECFC Angio Hoechst NucArea (assay number 3) [3]: > 10 µM

Cn1ccc2cc3c(cc21)CCN3C(=O)Nc1cccnc1 [NCGC00015917-06]
IC50/EC50, VEGF_ADSC\ECFC Angio CD31 TubeArea (assay number 2) [1]: > 10 µM
IC50/EC50, VEGF_ADSC\ECFC Angio Hoechst NucArea (assay number 3) [3]: > 10 µM

CCOC(=O)[C@H](CCc1ccccc1)N[C@@H](C)C(=O)N1Cc2cc(OC)c(OC)cc2C[C@H]1C(=O)O.Cl [NCGC00263546-01]
VEGF_ADSC\ECFC Angio CD31 TubeArea IC50/EC50 [1]: > 10 µM
VEGF_ADSC\ECFC Angio Hoechst NucArea IC50/EC50 [3]: > 10 µM

CCOC(=O)C1=C(C)NC(C)=C(C(=O)OCC)C1c1ccccc1/C=C/C(=O)OC(C)(C)C [NCGC00263529-01]
IC50/EC50, VEGF_ADSC\ECFC Angio CD31 TubeArea (assay number 2) [1]: > 10 µM
IC50/EC50, VEGF_ADSC\ECFC Angio Hoechst NucArea (assay number 3) [3]: > 10 µM

NC(=O)c1cccnc1 [NCGC00093354-05]
IC50 [1]: > 10 µM
IC50 [3]: > 10 µM

CCCOC(=O)c1cc(O)c(O)c(O)c1 [NCGC00164234-04]
IC50 [1]: > 10 µM
IC50 [3]: > 10 µM

CC[C@]12CCCN3CCc4c(n(c5ccccc45)C(=O)C1)[C@@H]32 [NCGC00262533-02]
VEGF_ADSC\ECFC Angio CD31 TubeArea IC50/EC50 [1]: > 10 µM
VEGF_ADSC\ECFC Angio Hoechst NucArea IC50/EC50 [3]: > 10 µM

O=[N+]([O-])C(Br)(CO)CO [NCGC00164057-03]
IC50 [1]: > 10 µM
IC50 [3]: > 10 µM

O=C1NCN(c2ccccc2)C12CCN(CCCC(c1ccc(F)cc1)c1ccc(F)cc1)CC2 [NCGC00015424-11]
IC50/EC50, VEGF_ADSC\ECFC Angio CD31 TubeArea (assay number 2) [1]: > 10 µM
IC50/EC50, VEGF_ADSC\ECFC Angio Hoechst NucArea (assay number 3) [3]: 8.086 µM

COC1=C(OC)C(=O)C(CCCCCCCCCCO)=C(C)C1=O [NCGC00160514-02]
VEGF_ADSC\ECFC Angio CD31 TubeArea IC50/EC50 [1]: > 10 µM
VEGF_ADSC\ECFC Angio Hoechst NucArea IC50/EC50 [3]: > 10 µM

O=C(O)C1CCC1 [NCGC00253667-01]
IC50 [1]: > 10 µM
IC50 [3]: > 10 µM

C[C@H]1O[C@@H](O[C@H]2CC[C@@]3(C)[C@H](CC[C@@H]4[C@@H]3C[C@@H](O)[C@]3(C)[C@@H](C5=CC(=O)OC5)CC[C@]43O)C2)C[C@H](O)[C@@H]1O[C@H]1C[C@H](O)[C@H](O[C@H]2C[C@H](O)[C@H](O[C@@H]3O[C@H](CO)[C@@H](O)[C@H](O)[C@H]3O)[C@@H](C)O2)[C@@H](C)O1 [NCGC00159441-03]
VEGF_ADSC\ECFC Angio CD31 TubeArea IC50/EC50 [1]: 0.0614 µM
VEGF_ADSC\ECFC Angio Hoechst NucArea IC50/EC50 [3]: 0.2987 µM

O=C(N/N=C/c1ccccc1O)c1ccncc1 [NCGC00160648-02]
IC50 [1]: > 10 µM
IC50 [3]: > 10 µM
